Experiments:
MOLT-4 cells = assay: Inhibitory activity on MOLT4 cell proliferation by Cell Titer-Glo method; format: cell-based; conditions: Homo sapiens, 72 hours incubation, read-out: IC50 concentration for inhibiting MOLT-4 cells
Description: Experimental Example 5, Evaluation Experiment of Inhibitory Activity of Compound on MOLT4 Cell Proliferation by Cell Titer-Glo Method
RPMI medium modified (Hyclone), FBS (Corning), Dimethyl Sulfoxide, P/S, CellTiter-Gbo Luminescent Cell Viability Assay (Promega), MOLT-4 cell (ATCC).
MOLT-4 cells were cultured in monolayer in vitro in an incubator containing 5% CO2 air at 37° C. The culture medium was RPMI 1640 with 10% FBS and 1% P/S. 15 μL of MOLT4 cells, containing 5×10^4 cells per ml, was inoculated to a 384-well plate (Corning, 3707), 750 cells/well, and incubated at 37° C. and 5% CO2 for 30 minutes. Then the compound that had been diluted in advance was added, with a total of 9 concentration points, and 2 parallel repetitions for each concentration point. The cell growing group without adding the compound was used as a negative control (maximum signal control), and the culture medium group was used as a blank control (minimum signal control). At the same time, it was ensured that the final DMSO content in each reaction well was 0.1%. The compound and the cells were incubated in a cell culture incubator at 37° C., 5% CO2 for 3 days (72 hours).
The 384-well plate was taken out from the cell culture incubator and allowed to stand at room temperature, equilibrated for 20 to 30 minutes, and then 25 μl of Cell Titer-Glo detection reagent was added to each reaction well, lysed on a shaker for 2 minutes, incubated for 10 minutes, and BMG PHERAStar (Luminescence) was used for reading.
The inhibition rate was calculated based on the luminescence signals: the average value of the negative control (maximum signal control) and the blank control (minimum signal control) was first calculated, then the inhibition rates of the compound at different concentrations for the cells were calculated as follows:
The IC50 of the compound to inhibit cell activity was calculated by fitting with GraphPad Prism 6 using log(inhibitor) vs. response−Variable slope mode. The fitting equation was: Y=Bottom+(Top−Bottom)/(1+10^((LogIC50−X)*HillSlope)), wherein Y represented the inhibition rate and X represented the known compound concentration after Log.

[1] = target: T1, BCL-XL protein in MOLT-4 cells (Homo sapiens, UniProt Q07817); assay: Degradation effect on BCL-XL protein in MOLT-4 cells by Western Blot; format: cell-based; conditions: 24 hours incubation, corrected by β-actin, read-out: DC50 concentration for BCL-XL protein degradation
T1 construct: host or cells: MOLT-4
T1 sequence (Q07817 whole entry): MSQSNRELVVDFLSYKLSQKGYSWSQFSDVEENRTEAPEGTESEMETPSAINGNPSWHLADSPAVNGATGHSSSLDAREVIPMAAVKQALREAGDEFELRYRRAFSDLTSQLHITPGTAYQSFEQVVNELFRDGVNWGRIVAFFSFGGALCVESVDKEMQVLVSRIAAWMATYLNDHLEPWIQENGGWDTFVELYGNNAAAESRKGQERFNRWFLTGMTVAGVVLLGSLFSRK
Description: Experimental Example 6. Experiment to Evaluate Degradation Effect of Compound on BCL-XL Protein in MOLT-4 Cells by Western Blot Method
SDS-PAGE gel (4-12%) (Genscript), PMSF 100 mM (Biyotime), Cocktail 100× (Biyotime), P/S, RPMI medium modified (Hyclone), FBS (Corning), 4× loading buffer (Thermo), Bcl-xL (54H6) Rabbit mAb (CST), Anti-rabbit IgG-HRP (CST), Anti-β-actin-HRP (Abcam), RIPA (Biyotime), Tween-20, MOLT-4 cell (ATCC), BCA Protein Assay Kit (TIANGEN), Immobilon Western Chemilunescent HRP Substrate (Millipore).
1) Incubation of compound and cells: 1 mL of 10^6 MOLT-4 cells (culture medium: 89% RPMI, 10% FBS, 1% P/S) was inoculated in a 6-well cell culture plate, the compound was subjected to gradient dilution with DMSO, then the compound diluted in DMSO in gradient was diluted again into the MOLT-4 medium, and 1 mL of the diluted compound was directly added to the 6-well plate with the cultured cells and incubated for 24 hours.
2) Protein extraction: After the compound and the cells were co-incubated for 24 hours, the cells were collected and placed in a 1.5 mL centrifuge tube, washed twice with ice-cold PBS, the supernatant was discarded, then 150 μL of RIPA lysis buffer was added and lysis was carried out on ice for 30 minutes; then the cell lysate was centrifuged in a low-temperature centrifuge at 15,000 rpm for 10 minutes, and the supernatant was collected; and BCA Protein Assay Kit was used to quantify the protein in the resulting cell lysate supernatant. 4× loading buffer was added to the cell lysate supernatant and incubated at 85° C. for 10 minutes to obtain a sample. The obtained sample was stored in −80° C. refrigerator for the use on the next day. 20 μg of the sample was taken to perform SDS-Page and transmembrane, 5% skim milk was used to block the membrane for 1 hour, and then Bcl-xL (54H6) rabbit mAb, Anti-rabbit IgG-HRP, Anti-β-actin-HRP were used for incubation. After incubation, Immobilon Western Chemiluminescent HRP Substrate was used for color development, and a gel analyzer was used for analysis.
Analysis was performed with a grayscale analysis software, the amount of BCL-XL protein was corrected by the amount of β-actin, and then Graphpad 6 was used to calculate DC50.

[2] = target: ternary complex between BCL-XL and CRBN-DDB1 (Homo sapiens, UniProt Q07817+Q96SW2); assay: Compound-induced formation of ternary complex between BCL-XL and CRBN-DDB1 by AlphaLISA; format: biochemical; design: key: the number of + indicates the intensity of AlphaLISA peak signal; ++: the number of + indicates the intensity of AlphaLISA peak signal; +++: the number of + indicates the intensity of AlphaLISA peak signal; ++++: the number of + indicates the intensity of AlphaLISA peak signal; +++++: the number of + indicates the intensity of AlphaLISA peak signal; conditions: peak signal; 60 nM Strep-BCL-XL and 60 nM His-CRBN/DDB1
Chain of ternary complex between BCL-XL and CRBN-DDB1 (Q07817 whole entry): as above
Chain of ternary complex between BCL-XL and CRBN-DDB1 (Q96SW2 whole entry): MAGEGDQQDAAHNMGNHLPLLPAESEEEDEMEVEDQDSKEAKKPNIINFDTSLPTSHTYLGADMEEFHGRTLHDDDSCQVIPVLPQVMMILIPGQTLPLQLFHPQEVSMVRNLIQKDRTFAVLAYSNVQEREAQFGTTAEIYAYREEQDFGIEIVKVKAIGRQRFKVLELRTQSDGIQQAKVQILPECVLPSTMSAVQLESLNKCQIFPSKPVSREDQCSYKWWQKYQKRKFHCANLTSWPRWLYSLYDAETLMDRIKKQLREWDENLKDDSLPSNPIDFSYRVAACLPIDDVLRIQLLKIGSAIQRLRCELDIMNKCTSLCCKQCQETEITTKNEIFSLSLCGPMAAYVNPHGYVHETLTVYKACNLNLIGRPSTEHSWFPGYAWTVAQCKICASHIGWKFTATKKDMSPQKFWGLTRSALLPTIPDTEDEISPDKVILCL
Chain of ternary complex between BCL-XL and CRBN-DDB1 (Q16531 whole entry partner): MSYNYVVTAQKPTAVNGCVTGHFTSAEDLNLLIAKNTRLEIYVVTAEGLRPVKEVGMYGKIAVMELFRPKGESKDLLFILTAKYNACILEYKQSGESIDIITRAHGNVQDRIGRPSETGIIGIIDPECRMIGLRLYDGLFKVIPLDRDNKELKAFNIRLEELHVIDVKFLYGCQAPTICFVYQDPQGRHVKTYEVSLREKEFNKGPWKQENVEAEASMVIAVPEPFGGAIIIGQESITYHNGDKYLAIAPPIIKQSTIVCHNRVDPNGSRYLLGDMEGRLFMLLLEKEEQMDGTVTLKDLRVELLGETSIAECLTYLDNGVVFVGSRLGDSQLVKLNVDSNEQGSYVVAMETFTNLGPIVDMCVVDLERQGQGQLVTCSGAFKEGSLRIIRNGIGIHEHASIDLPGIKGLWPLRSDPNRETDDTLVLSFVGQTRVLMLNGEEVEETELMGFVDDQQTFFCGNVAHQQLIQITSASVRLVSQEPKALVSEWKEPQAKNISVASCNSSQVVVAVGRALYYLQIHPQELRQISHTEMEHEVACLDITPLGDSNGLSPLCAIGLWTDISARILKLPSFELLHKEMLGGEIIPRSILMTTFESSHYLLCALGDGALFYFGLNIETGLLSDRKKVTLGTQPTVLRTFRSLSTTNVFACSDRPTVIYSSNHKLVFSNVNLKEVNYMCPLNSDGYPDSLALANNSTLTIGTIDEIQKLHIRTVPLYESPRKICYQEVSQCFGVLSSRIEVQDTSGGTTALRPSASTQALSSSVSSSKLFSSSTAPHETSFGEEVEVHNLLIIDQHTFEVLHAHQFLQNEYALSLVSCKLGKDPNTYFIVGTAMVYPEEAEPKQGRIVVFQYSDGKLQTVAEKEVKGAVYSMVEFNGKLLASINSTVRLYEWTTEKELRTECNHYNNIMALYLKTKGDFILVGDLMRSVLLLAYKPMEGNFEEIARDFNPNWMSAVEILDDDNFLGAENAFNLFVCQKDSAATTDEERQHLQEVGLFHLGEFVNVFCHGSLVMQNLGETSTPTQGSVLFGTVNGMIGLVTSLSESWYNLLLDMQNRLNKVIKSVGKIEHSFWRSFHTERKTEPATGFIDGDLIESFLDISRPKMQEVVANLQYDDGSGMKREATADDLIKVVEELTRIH
Description: Experimental Example 4, Detection of Compound-Induced Formation of Ternary Complex Between BCL-XL and CRBN-DDB1 by AlphaLISA Method
Na2HPO4(Sigma), NaH2PO4(Sigma), sodium chloride (Sigma), Tween-20 (Sigma), AlphaLISA®Nikel Chelate Acceptor beads (PerkinElmer), Strep-Tactin® Alpha Donor beads (PerkinElmer), Assay plate (Corning), Strep-BCl-XL (HitGen), His-CRBN/DDB1 (HitGen).
DMSO was used to dissolve the dry powder of the test compound to obtain a 10.00 mM solution. The instrument ECHO was used to perform gradient dilution of the compound, which was then added to a 384-well reaction plate (Corning, Cat #3824), so that the final concentration of DMSO in the entire reaction system (10.0 μL) was less than 1%, and the same amount of DMSO was added and used as a control.
Strep-BCl-XL and His-CRBN/DDB1 proteins were dissolved in buffer (10 mM NaH2PO4, 40 mM Na2HPO4, 150 mM sodium chloride, 0.03% Tween20, pH=7.4) to obtain a protein mixture of 60 nM Strep-BCL-XL and 60 nM His-CRBN/DDB1, the protein mixture (5ul/well) was added to the 384-well plate in which the compound had been added, and incubated at room temperature for 30 minutes, then 5 μl of a detection mixture with 50 μg/ml AlphaLISA®Nikel Chelate Acceptor beads and 50 μg/ml Strep-Tactin® Alpha Donor beads was added, and incubated at room temperature for 2 hours; and then a microplate reader was used to detect AlphaLISA signal.
Fifth order polynomial or Sixth order polynomial in Polynomial of Graphpad 6.0 was used for data fitting.

IC50 (MOLT-4 cells) [µM]	DC50 [1] [nM]	AlphaLISA signal (PROTAC ternary complex signal intensity) [2]	Compound
< 1	1000 to 10000	–	CNc1nc(-c2cnc3ccccc3c2)nc2c1CCN(C(=O)c1ccc(/C=C/c3ccc(C#CCN4CCN(CCC#Cc5cccc(C6CCC(=O)NC6=O)c5)CC4)cc3)cc1)C2 (centres unmarked) [Compound D2-15]
1 to 10	< 1000	++	O=C1CCC(N2Cc3c(CN4CC5(C4)CN(C4CCN(CC#Cc6ccc(/C=C/c7ccc(C(=O)N8CCc9cnc(-c%10cnc%11ccccc%11c%10)nc9C8)cc7)cc6)CC4)C5)cccc3C2=O)C(=O)N1 (centres unmarked) [Compound F3B-3]
1 to 10	1000 to 10000	++	O=C1CCC(N2Cc3cc(N4CCC(CN5CCN(CC#Cc6ccc(/C=C/c7ccc(C(=O)N8CCc9cnc(-c%10cnc%11ccccc%11c%10)nc9C8)cc7)cc6)CC5)CC4)ccc3C2=O)C(=O)N1 (centres unmarked) [Compound F2-4]
50 to 100	1000 to 10000	–	O=C1CCC(N2Cc3cc(N4CCC(CN5CCN(CC#Cc6ccc(OCC78CC(C(=O)N9CCc%10cnc(-c%11cnc%12ccccc%12c%11)nc%10C9)(C7)C8)cc6)CC5)CC4)ccc3C2=O)C(=O)N1 (centres unmarked) [Compound F2-9]
50 to 100	1000 to 10000	–	CNc1nc(-c2cnc3ccccc3c2)nc2c1CCN(C(=O)c1ccc(/C=C/c3ccc(C#CCN4CCC(CN5CCN(c6cc7c(cc6F)C(=O)N(C6CCC(=O)NC6=O)C7=O)CC5)CC4)cc3)cc1)C2 (centres unmarked) [Compound F1B-3]
50 to 100	50000 to 100000	+	O=C1CCC(N2C(=O)c3ccc(N4CCN(CC5CCN(CC#Cc6ccc(/C=C/c7ccc(C(=O)N8CCc9cnc(-c%10cnc%11ccccc%11c%10)nc9C8)cc7)cc6)CC5)CC4)cc3C2=O)C(=O)N1 (centres unmarked) [Compound F1B-2]
< 1	< 1000	–	CNc1nc(-c2cnc3ccccc3c2)nc2c1CCN(C(=O)c1ccc(/C=C/c3ccc(C#CCN4CCN(CCC#Cc5cccc(N6CCC(=O)NC6=O)c5)CC4)cc3)cc1)C2 [Compound H1-1]
50 to 100	–	++	C=Cc1cc(-c2ncc3c(n2)CN(C(=O)c2ccc(/C=C/c4ccc(C#CCN5CCN(C6CCN(CC#Cc7cccc8c7CN(C7CCC(=O)NC7=O)C8=O)CC6)CC5)cc4)cc2)CC3)cnc1C=C (centres unmarked) [Compound E1-2]
50 to 100	1000 to 10000	–	CNc1nc(-c2cnc3ccccc3c2)nc2c1CCN(C(=O)c1ccc(/C=C/c3ccc(C#CCN4CCN(CC5CCN(c6ccc7c(c6)C(=O)N(C6CCC(=O)NC6=O)C7=O)CC5)CC4)cc3)cc1)C2 (centres unmarked) [Compound F2-11]
1 to 10	< 1000	–	CNc1nc(-c2cnc3ccccc3c2)nc2c1CCN(C(=O)c1ccc(/C=C/c3ccc(C#CCN4CCN(CC5CCN(c6ccc7c(c6)CN(C6CCC(=O)NC6=O)C7=O)CC5)CC4)cc3)cc1)C2 (centres unmarked) [Compound F2-8]
